In patent US9688695B2, “Imidazothiadiazole and imidazopyrazine derivatives as protease activated receptor 4 (PAR4) inhibitors for treating platelet aggregation” (BRISTOL-MYERS SQUIBB COMPANY, priority 2012, dated 2017) one finds EC50 data, which are given here for 38 molecules.

The term EC50 denotes the concentration at which the effect is half-maximal.

This assay deals with PAR4 (Homo sapiens (Human), UniProt Q96RI0). Nature of the assay: FLIPR assay in PAR4-expressing HEK293 cells (PAR4 antagonist activity, calcium mobilization). As to conditions: H-Ala-Phe(4-F)-Pro-Gly-Trp-Leu-Val-Lys-Asn-Gly-NH2-induced calcium mobilization. In kind it is cell-based. The source says: The FLIPR assay is an exemplary in vitro assay for measuring the activity of the PAR4 antagonists of the present invention. In this assay, intracellular calcium mobilization is induced in PAR4 expressing cells by a PAR4 agonist and calcium mobilization is monitored. See, e.g., Example A.
Chain of PAR4 (Q96RI0 18-385): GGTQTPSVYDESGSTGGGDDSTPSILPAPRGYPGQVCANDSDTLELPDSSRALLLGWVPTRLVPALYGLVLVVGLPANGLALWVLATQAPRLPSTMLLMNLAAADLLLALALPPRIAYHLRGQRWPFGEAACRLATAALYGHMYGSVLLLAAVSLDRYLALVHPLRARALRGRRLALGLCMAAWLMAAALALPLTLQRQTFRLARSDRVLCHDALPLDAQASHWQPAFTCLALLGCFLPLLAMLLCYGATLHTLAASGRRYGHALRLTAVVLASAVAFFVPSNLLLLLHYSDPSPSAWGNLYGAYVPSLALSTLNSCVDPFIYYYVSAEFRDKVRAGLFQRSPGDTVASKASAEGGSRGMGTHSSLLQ
HEK293 cells stably expressing PAR4 were generated by a standard method of transfection of human […] cDNA expression vector or by RAGE technology from Athersys Inc. (Cleveland, Ohio) and selected based on PAR4 protein expression of mRNA expression. […] These cells express endogenous PAR1 and can elicit calcium signal upon stimulation with PAR1 agonist peptide.
Counter screens for agonist activity and PAR1 antagonist activity were also performed. Briefly, HEK293 EBNA PAR4 clone 20664.1J cells were plated 24 hrs. prior to experiment in 384 well, Poly-D-Lysine coated, black, clear bottom plates (Greiner Bio-One, Monroe, N.C.). Cells were plated at 20,000 cells/well in […] growth medium and incubated at 37° C. with 5% CO2 overnight. At time of assay, media was replaced with 40 μl 1× Hank's Buffered Saline Solution (HBSS) (with 10 mM HEPES) and 20 μl test compound also diluted in 1×HBSS buffer was added at various concentrations and 0.67% DMSO final concentration on the FDSS for agonist measurement. The cells were then incubated for 30 minutes at room temperature followed by addition of 20 μl of agonist peptide for antagonist measurement on the FDSS.
As indicated above, the FLIPR assay, an in vitro assay, measures the PAR4 antagonist activity of compounds tested as described in Example A. The PRP assay, an in vitro assay, measures the PAR4 antagonist assay of the compounds tested in the presence of plasma proteins and thrombin agonist as described in Example C.
On the technique in general: Calcium flux is commonly read through the fluorescence of an indicator in the cells.
Regarding `COc1cc(OCc2nc(-c3ccc(C(=O)OC(C)(C)C)cc3)sc2C)c2cc(-c3cn4nc(OC)sc4n3)oc2c1` [Example 45, tert-Butyl 4-(4-(((6-methoxy-2-(2-methoxyimidazo[2,1-b][1,3,4]thiadiazol-6-yl)benzofuran-4-yl)oxy)methyl)-5-methylthiazol-2-yl)benzoate], the EC50 came to 1.3 nM.

Take `COc1cc(OCc2nc(-c3ccc(C(=O)O)cc3)sc2C)c2cc(-c3cn4nc(OC)sc4n3)oc2c1` [Example 46, 4-(4-(((6-Methoxy-2-(2-methoxyimidazo[2,1-b][1,3,4]thiadiazol-6-yl)benzofuran-4-yl)oxy)methyl)-5-methylthiazol-2-yl)benzoic acid]: the concentration giving a half-maximal response (EC50) is 2.4 nM.

Turning to `COc1cc(OCc2nc(-c3ccc(C(=O)NCC(F)(F)F)cc3)sc2C)c2cc(-c3cn4nc(OC)sc4n3)oc2c1` [Example 47, 4-(4-(((6-Methoxy-2-(2-methoxyimidazo[2,1-b][1,3,4]thiadiazol-6-yl)benzofuran-4-yl)oxy)methyl)-5-methylthiazol-2-yl)-N-(2,2,2-trifluoroethyl)benzamide], the EC50 worked out at 0.77 nM.

Turning to `CNC(=O)c1ccc(-c2nc(COc3cc(OC)cc4oc(-c5cn6nc(OC)sc6n5)cc34)c(C)s2)cc1` [Example 49, 4-(4-(((6-Methoxy-2-(2-methoxyimidazo[2,1-b][1,3,4]thiadiazol-6-yl)benzofuran-4-yl)oxy)methyl)-5-methylthiazol-2-yl)-N-methylbenzamide], the EC50 was determined as 0.82 nM.

For `COc1cc(OCc2csc(CC(C)C)n2)c2cc(-c3cn4nc(OC)sc4n3)oc2c1` [Example 50], the EC50 was 0.21 nM.

As for `COc1cc(OCc2csc(N3C[C@@H](C)O[C@@H](C)C3)n2)c2cc(-c3cn4nc(OC)sc4n3)oc2c1` [Example 51], the EC50 stood at 0.26 nM.

As for `COc1cc(OCc2csc(N3CCSCC3)n2)c2cc(-c3cn4nc(OC)sc4n3)oc2c1` [Example 53], the EC50 came out at 0.52 nM.

For the molecule `COc1cc(OCc2csc(N3CCS(=O)(=O)CC3)n2)c2cc(-c3cn4nc(OC)sc4n3)oc2c1` [Example 54], the EC50 worked out at 0.36 nM.

In the case of `COc1cc(OCc2csc(N3CC[S+]([O-])CC3)n2)c2cc(-c3cn4nc(OC)sc4n3)oc2c1` [Example 55], the 50% effective concentration (EC50) was found to be 0.79 nM.

For `COc1cc(OCc2csc(-c3ccc4c(c3)OCO4)n2)c2cc(-c3cn4nc(OC)sc4n3)oc2c1` [Example 57], the EC50 came to 0.67 nM.

For `COc1cc(OCc2csc(CCC(F)(F)F)n2)c2cc(-c3cn4nc(OC)sc4n3)oc2c1` [Example 58], the EC50 was 0.33 nM.

As for `COc1cc(OCc2csc(CCC3CC3)n2)c2cc(-c3cn4nc(OC)sc4n3)oc2c1` [Example 60], the EC50 was determined as 0.38 nM.

As for `COc1cc(OCc2csc(-c3cccc(C#N)c3)n2)c2cc(-c3cn4nc(OC)sc4n3)oc2c1` [Example 61], the EC50 was determined as 0.64 nM.

As to `COc1cc(OCc2csc(-c3cccc(OC(C)=O)c3)n2)c2cc(-c3cn4nc(OC)sc4n3)oc2c1` [Example 62], the EC50 is 0.48 nM.

Consider `COc1cc(OCc2csc(-c3cccc(O)c3)n2)c2cc(-c3cn4nc(OC)sc4n3)oc2c1` [Example 63], for which the EC50 is 0.63 nM.

For the molecule `COc1cc(OCc2csc(-c3ccc(C#N)cc3)n2)c2cc(-c3cn4nc(OC)sc4n3)oc2c1` [Example 64], the EC50 came to 2.3 nM.

Consider `COc1cc(OCc2nc(-c3ccc(C(=O)N(C)C)cc3)sc2C)c2cc(-c3cn4nc(OC)sc4n3)oc2c1` [Example 66], for which the EC50 worked out at 0.75 nM.

As for `COc1cc(OCc2csc(-c3ccc(COC(C)=O)cc3)n2)c2cc(-c3cn4nc(OC)sc4n3)oc2c1` [Example 68], the EC50 was found to be 0.49 nM.

Regarding `COc1cc(OCc2csc(-c3ccc(CO)cc3)n2)c2cc(-c3cn4nc(OC)sc4n3)oc2c1` [Example 69], the EC50 is 0.23 nM.

Regarding `COc1cc(OCc2nc(-c3ccc(C(N)=O)cc3)sc2C)c2cc(-c3cn4nc(OC)sc4n3)oc2c1` [Example 70], the EC50 came out at 0.89 nM.

With `COc1cc(OCc2nc(-c3ccnc(F)c3)sc2C)c2cc(-c3cn4nc(OC)sc4n3)oc2c1` [Example 71], the EC50 stood at 0.46 nM.

Regarding `COc1cc(OCc2nc(-c3cccc(COC(C)=O)c3)sc2C)c2cc(-c3cn4nc(OC)sc4n3)oc2c1` [Example 76], the EC50 was determined as 0.42 nM.

For the molecule `COc1cc(OCc2csc(-c3cccnc3F)n2)c2cc(-c3cn4nc(OC)sc4n3)oc2c1` [Example 78], the EC50 turned out to be 0.4 nM.

Consider `COc1cncc(-c2nc(COc3cc(OC)cc4oc(-c5cn6nc(OC)sc6n5)cc34)cs2)c1` [Example 79], for which the EC50 was 2.6 nM.

With `COc1cc(OCc2csc(-c3cccnc3)n2)c2cc(-c3cn4nc(OC)sc4n3)oc2c1` [Example 82], the EC50 came out at 0.67 nM.

On to `COc1cc(OC(C)c2csc(-c3ccccc3)n2)c2cc(-c3cn4nc(OC)sc4n3)oc2c1` (centres unmarked) [Example 83, 2-Methoxy-6-(6-methoxy-4-(1-(2-phenylthiazol-4-yl)ethoxy)benzofuran-2-yl)imidazo[2,1-b][1,3,4]thiadiazole], for which the EC50 worked out at 1.1 nM.

As for `COc1cc(OCc2nc(N3CCOCC3)sc2Cl)c2cc(-c3cn4nc(OC)sc4n3)oc2c1` [Example 84], the EC50 is 0.97 nM.

With `COc1cc(OCc2nc(-c3ccccc3)sc2Cl)c2cc(-c3cn4nc(OC)sc4n3)oc2c1` [Example 85, 6-(4-((5-Chloro-2-phenylthiazol-4-yl)methoxy)-6-methoxybenzofuran-2-yl)-2-methoxyimidazo[2,1-b][1,3,4]thiadiazole], the concentration giving a half-maximal response (EC50) was determined as 1.1 nM.

`COc1cc(OCc2nc(N3CCOCC3)sc2C=O)c2cc(-c3cn4nc(OC)sc4n3)oc2c1` [Example 88, 4-(((6-Methoxy-2-(2-methoxyimidazo[2,1-b][1,3,4]thiadiazol-6-yl)benzofuran-4-yl)oxy)methyl)-2-morpholinothiazole-5-carbaldehyde]: the 50% effective concentration (EC50) came to 2.9 nM.

For the molecule `COc1cc(OCc2nc(N3CCOCC3)sc2CO)c2cc(-c3cn4nc(OC)sc4n3)oc2c1` [Example 89, (4-(((6-Methoxy-2-(2-methoxyimidazo[2,1-b][1,3,4]thiadiazol-6-yl)benzofuran-4-yl)oxy)methyl)-2-morpholinothiazol-5-yl)methanol], the EC50 came to 0.69 nM.

Take `COCc1sc(N2CCOCC2)nc1COc1cc(OC)cc2oc(-c3cn4nc(OC)sc4n3)cc12` [Example 90, 4-(4-(((6-Methoxy-2-(2-methoxyimidazo[2,1-b][1,3,4]thiadiazol-6-yl)benzofuran-4-yl)oxy)methyl)-5-(methoxymethyl)thiazol-2-yl)morpholine]: the EC50 worked out at 0.33 nM.

On to `COc1cc(OCc2nc(N3CCOCC3)sc2C(C)(C)O)c2cc(-c3cn4nc(OC)sc4n3)oc2c1` [Example 91, 2-(4-(((6-Methoxy-2-(2-methoxyimidazo[2,1-b][1,3,4]thiadiazol-6-yl)benzofuran-4-yl)oxy)methyl)-2-morpholinothiazol-5-yl)propan-2-ol], for which the EC50 was 0.27 nM.

`COc1cc(OCc2nc(C3CCOCC3)sc2C)c2cc(-c3cn4nc(OC)sc4n3)oc2c1` [Example 95, 2-Methoxy-6-(6-methoxy-4-((5-methyl-2-(tetrahydro-2H-pyran-4-yl)thiazol-4-yl)methoxy)benzofuran-2-yl)imidazo[2,1-b][1,3,4]thiadiazole]: the half-maximal effective concentration (EC50) is 0.83 nM.

Consider `COc1cc(OCc2nc(N3CCOCC3)oc2C)c2cc(-c3cn4nc(OC)sc4n3)oc2c1` [Example 97, 4-(4-(((6-Methoxy-2-(2-methoxyimidazo[2,1-b][1,3,4]thiadiazol-6-yl)benzofuran-4-yl)oxy)methyl)-5-methyloxazol-2-yl)morpholine], for which the EC50 is 0.63 nM.

For `COc1cc(OCc2coc(N3CC4CCC(C3)O4)n2)c2cc(-c3cn4nc(OC)sc4n3)oc2c1` [Example 98, 3-(4-(((6-Methoxy-2-(2-methoxyimidazo[2,1-b][1,3,4]thiadiazol-6-yl)benzofuran-4-yl)oxy)methyl)oxazol-2-yl)-8-oxa-3-azabicyclo[3.2.1]octane], the half-maximal effective concentration (EC50) stood at 0.37 nM.

As for `COc1cc(OCc2csc(N3CCN(C(=O)OC(C)(C)C)CC3)n2)c2cc(-c3cn4nc(OC)sc4n3)oc2c1` [Example 99, tert-Butyl 4-(4-(((6-methoxy-2-(2-methoxyimidazo[2,1-b][1,3,4]thiadiazol-6-yl)benzofuran-4-yl)oxy)methyl)thiazol-2-yl)piperazine-1-carboxylate], the EC50 was 0.84 nM.

With `COc1cc(OCc2csc(N3CCN(S(C)(=O)=O)CC3)n2)c2cc(-c3cn4nc(OC)sc4n3)oc2c1` [Example 100, 2-Methoxy-6-(6-methoxy-4-((2-(4-(methylsulfonyl)piperazin-1-yl)thiazol-4-yl)methoxy)benzofuran-2-yl)imidazo[2,1-b][1,3,4]thiadiazole], the half-maximal effective concentration (EC50) was found to be 0.25 nM.

For `COc1cc(OCc2csc(N3CCN(S(=O)(=O)c4ccc(C#N)cc4)CC3)n2)c2cc(-c3cn4nc(OC)sc4n3)oc2c1` [Example 101, 4-((4-(4-(((6-Methoxy-2-(2-methoxyimidazo[2,1-b][1,3,4]thiadiazol-6-yl)benzofuran-4-yl)oxy)methyl)thiazol-2-yl)piperazin-1-yl)sulfonyl)benzonitrile], the EC50 is 0.36 nM.
